Earlier results in US20110081416A1, “ORDERED MESOPOROUS SILICA MATERIAL” (FORMAC Pharmaceuticals N.V., priority 2008, published 2011).

Assays:
[1] = not given; remark: listed apart in the source
[2] = Table 3, acids with a pKa of less than 2

NC(=O)N1c2ccccc2C=Cc2ccccc21 [Carbamazepine, 5H-dibenz[b,f]azepine-5-carboxamide]
solubility in alcohol and acetone (in words) (alcohol and acetone): soluble
solubility in water (in words): practically insoluble

C#C[C@]1(O)CC[C@H]2[C@@H]3CCC4=Cc5oncc5C[C@]4(C)[C@H]3CC[C@@]21C [Danazol, 17a-Pregna-2,4-dien-20-yno[2,3-d]-isoxazol-17-ol]
increase in plasma concentration on doubling the dose ([1]; doubling the dose): 30-40%
half-life ([1]; in vivo): 4 to 5 h
time of peak (plasma) concentrations ([1]; oral): ≤ 2 h

CCC(C)n1ncn(-c2ccc(N3CCN(c4ccc(OCC5COC(Cn6cncn6)(c6ccc(Cl)cc6Cl)O5)cc4)CC3)cc2)c1=O (stereo not shown) [Itraconazole]
solubility in water (in words): poorly soluble

CC(=O)O[C@H]1C(=O)[C@@]2(C)[C@H]([C@H](OC(=O)c3ccccc3)[C@]3(O)C[C@H](OC(=O)[C@H](O)[C@@H](NC(=O)c4ccccc4)c4ccccc4)C(C)=C1C3(C)C)[C@]1(OC(C)=O)CO[C@@H]1C[C@@H]2O [Paclitaxel]
solubility in water (in words): insoluble

C=CC[C@@H]1/C=C(\C)C[C@H](C)C[C@H](OC)[C@H]2O[C@@](O)(C(=O)C(=O)N3CCCC[C@H]3C(=O)O[C@H](/C(C)=C/[C@@H]3CC[C@@H](O)[C@H](OC)C3)[C@H](C)[C@@H](O)CC1=O)[C@H](C)C[C@@H]2OC [Tacrolimus]
solubility in ethanol (in words) (ethanol): freely soluble
solubility in methanol and chloroform (in words) (methanol and chloroform): very soluble
solubility in water (in words): practically insoluble
absolute bioavailability ([1]; 5 mg dose taken twice a day): approximately 17%

O=S(=O)(O)NC1CCCCC1 [cyclamic acid]
pKa [2]: 1.90

O=S(O)O [sulfurous acid]
pKa [2]: 1.81
